Reference: ChEMBL document CHEMBL3885861, “Open TG-GATES”

Species: Rattus norvegicus
Test: Open TG-GATES - Regimen: Daily Repeat
Format: toxicity, organism-based, Sprague-Dawley
Set-up: regimen Daily Repeat, gender Male, age 6 weeks
Conditions: in vivo, po, 10 mg/kg, route gavage, dose level Low; for APTT / Bas / Eos / Fbg / Hb / Ht / Lym / MCH / MCHC / MCV / Mono / Neu / PT / Plat / RBC / Ret / WBC: tissue Blood; for KIDNEY_L / KIDNEY_R / KIDNEY_TOTAL: tissue Kidney; for LIVER: tissue Liver; for A/G / ALP / ALT / AST / BUN / CRE / Ca / Cl / DBIL / GLC / IP / K / LDH / Na / PL / RALB / TBIL / TC / TG / TP / gamma-GTP: tissue Plasma

For NC(=O)N/N=C/c1ccc([N+](=O)[O-])o1 [NITROFURAZONE], the TERMINAL_BW (72 h, time 3 day) was 217.9 g, the APTT (72 h, time 3 day) was 14.6 s and the Bas (72 h, time 3 day) was 0.2%. For the same compound, the Eos (72 h, time 3 day) was 0.8%, the Fbg (72 h, time 3 day) was 265.6 mg/dL and the Hb (72 h, time 3 day) was 12.9 g/dL. For the same compound, the Ht (72 h, time 3 day) was 39.6%, the Lym (72 h, time 3 day) was 77.8% and the MCH (72 h, time 3 day) was 22.1 pg. The MCHC (72 h, time 3 day) was 32.6%, the MCV (72 h, time 3 day) was 67.8 fL and the Mono (72 h, time 3 day) was 3.2%. It also gave a Neu (72 h, time 3 day) of 17.8%, a PT (72 h, time 3 day) of 14.4 s and a Plat (72 h, time 3 day) of 118.7 x10_4/uL. The RBC (72 h, time 3 day) was 584.8 x10_4/ul, the Ret (72 h, time 3 day) was 9.3% and the WBC (72 h, time 3 day) was 97.1 x10_2/uL. It also gave a KIDNEY_L (72 h, time 3 day) of 1 g, a KIDNEY_R (72 h, time 3 day) of 1 g and a KIDNEY_TOTAL (72 h, time 3 day) of 1.9 g. For the same compound, the LIVER (72 h, time 3 day) was 10.7 g, the A/G (72 h, time 3 day) was 0.9 and the ALP (72 h, time 3 day) was 1665.4 IU/L. It also gave an ALT (72 h, time 3 day) of 49 IU/L, an AST (72 h, time 3 day) of 74.6 IU/L and a BUN (72 h, time 3 day) of 15 mg/dL. The CRE (72 h, time 3 day) was 0.2 mg/dL, the Ca (72 h, time 3 day) was 11.3 mg/dL and the Cl (72 h, time 3 day) was 105.6 meq/L. The DBIL (72 h, time 3 day) was 0.018 mg/dL, the GLC (72 h, time 3 day) was 189 mg/dL and the IP (72 h, time 3 day) was 7.9 mg/dL. The K (72 h, time 3 day) was 4.3 meq/L, the LDH (72 h, time 3 day) was 69.6 IU/L and the Na (72 h, time 3 day) was 141.4 meq/L. For the same compound, the PL (72 h, time 3 day) was 151.8 mg/dL, the RALB (72 h, time 3 day) was 2.6 g/dL and the TBIL (72 h, time 3 day) was 0.048 mg/dL. For the same compound, the TC (72 h, time 3 day) was 85 mg/dL, the TG (72 h, time 3 day) was 97.8 mg/dL and the TP (72 h, time 3 day) was 5.5 g/dL. For the same compound, the gamma-GTP (72 h, time 3 day) was 1 IU/L, the TERMINAL_BW ([…], time 7 day) was 257.3 g and the TERMINAL_BW ([…], time 14 day) was 318.7 g. For the same compound, the TERMINAL_BW ([…], time 28 day) was 442.9 g, the APTT ([…], time 7 day) was 16.7 s and the Bas ([…], time 7 day) was 0%. It also gave an Eos ([…], time 7 day) of 1%, a Fbg ([…], time 7 day) of 257 mg/dL and a Hb ([…], time 7 day) of 13.2 g/dL. It also gave a Ht ([…], time 7 day) of 39.3%, a Lym ([…], time 7 day) of 79.2% and an MCH ([…], time 7 day) of 21.5 pg. The MCHC ([…], time 7 day) was 33.7%, the MCV ([…], time 7 day) was 64 fL and the Mono ([…], time 7 day) was 2.4%. The Neu ([…], time 7 day) was 16.6%, the PT ([…], time 7 day) was 14.3 s and the Plat ([…], time 7 day) was 113.7 x10_4/uL. The RBC ([…], time 7 day) was 615 x10_4/ul, the Ret ([…], time 7 day) was 7.1% and the WBC ([…], time 7 day) was 83.6 x10_2/uL. The APTT ([…], time 14 day) was 15.2 s, the Bas ([…], time 14 day) was 0.2% and the Eos ([…], time 14 day) was 0.8%. For the same compound, the Fbg ([…], time 14 day) was 353 mg/dL, the Hb ([…], time 14 day) was 13.5 g/dL and the Ht ([…], time 14 day) was 40.9%. It also gave a Lym ([…], time 14 day) of 80%, an MCH ([…], time 14 day) of 20.2 pg and an MCHC ([…], time 14 day) of 33%. It also gave an MCV ([…], time 14 day) of 61.3 fL, a Mono ([…], time 14 day) of 2% and a Neu ([…], time 14 day) of 14.4%. For the same compound, the PT ([…], time 14 day) was 14.7 s, the Plat ([…], time 14 day) was 111.7 x10_4/uL and the RBC ([…], time 14 day) was 666.6 x10_4/ul. It also gave a Ret ([…], time 14 day) of 4.5%, a WBC ([…], time 14 day) of 106.9 x10_2/uL and an APTT ([…], time 28 day) of 16.4 s. It also gave a Bas ([…], time 28 day) of 0%, an Eos ([…], time 28 day) of 1.4% and a Fbg ([…], time 28 day) of 292.6 mg/dL. It also gave a Hb ([…], time 28 day) of 14.7 g/dL, a Ht ([…], time 28 day) of 43.8% and a Lym ([…], time 28 day) of 76.4%. The MCH ([…], time 28 day) was 19.3 pg, the MCHC ([…], time 28 day) was 33.6% and the MCV ([…], time 28 day) was 57.6 fL. The Mono ([…], time 28 day) was 2.2%, the Neu ([…], time 28 day) was 19.4% and the PT ([…], time 28 day) was 14.8 s. It also gave a Plat ([…], time 28 day) of 94.4 x10_4/uL, an RBC ([…], time 28 day) of 761 x10_4/ul and a Ret ([…], time 28 day) of 3%. For the same compound, the WBC ([…], time 28 day) was 94.8 x10_2/uL, the KIDNEY_L ([…], time 7 day) was 1.1 g and the KIDNEY_R ([…], time 7 day) was 1.1 g. It also gave a KIDNEY_TOTAL ([…], time 7 day) of 2.2 g, a KIDNEY_L ([…], time 14 day) of 1.3 g and a KIDNEY_R ([…], time 14 day) of 1.2 g. It also gave a KIDNEY_TOTAL ([…], time 14 day) of 2.5 g, a KIDNEY_L ([…], time 28 day) of 1.5 g and a KIDNEY_R ([…], time 28 day) of 1.5 g. For the same compound, the KIDNEY_TOTAL ([…], time 28 day) was 3.1 g, the LIVER ([…], time 7 day) was 12.9 g and the LIVER ([…], time 14 day) was 15.3 g. For the same compound, the LIVER ([…], time 28 day) was 18.6 g, the A/G ([…], time 7 day) was 0.9 and the ALP ([…], time 7 day) was 1835.8 IU/L. For the same compound, the ALT ([…], time 7 day) was 44.6 IU/L, the AST ([…], time 7 day) was 70.8 IU/L and the BUN ([…], time 7 day) was 15.6 mg/dL. It also gave a CRE ([…], time 7 day) of 0.2 mg/dL, a Ca ([…], time 7 day) of 11.1 mg/dL and a Cl ([…], time 7 day) of 104 meq/L. It also gave a DBIL ([…], time 7 day) of 0.016 mg/dL, a GLC ([…], time 7 day) of 184 mg/dL and an IP ([…], time 7 day) of 7.7 mg/dL. It also gave a K ([…], time 7 day) of 3.7 meq/L, an LDH ([…], time 7 day) of 67 IU/L and a Na ([…], time 7 day) of 141.4 meq/L. The PL ([…], time 7 day) was 156.4 mg/dL, the RALB ([…], time 7 day) was 2.6 g/dL and the TBIL ([…], time 7 day) was 0.05 mg/dL. For the same compound, the TC ([…], time 7 day) was 83.4 mg/dL, the TG ([…], time 7 day) was 102 mg/dL and the TP ([…], time 7 day) was 5.6 g/dL. The gamma-GTP ([…], time 7 day) was 1 IU/L, the A/G ([…], time 14 day) was 0.8 and the ALP ([…], time 14 day) was 1653.4 IU/L. It also gave an ALT ([…], time 14 day) of 47.4 IU/L, an AST ([…], time 14 day) of 83.6 IU/L and a BUN ([…], time 14 day) of 17.8 mg/dL. The CRE ([…], time 14 day) was 0.2 mg/dL, the Ca ([…], time 14 day) was 10.9 mg/dL and the Cl ([…], time 14 day) was 105 meq/L. For the same compound, the DBIL ([…], time 14 day) was 0.014 mg/dL, the GLC ([…], time 14 day) was 185.8 mg/dL and the IP ([…], time 14 day) was 7.3 mg/dL. For the same compound, the K ([…], time 14 day) was 4.1 meq/L, the LDH ([…], time 14 day) was 92.4 IU/L and the Na ([…], time 14 day) was 142.4 meq/L. For the same compound, the PL ([…], time 14 day) was 156.2 mg/dL, the RALB ([…], time 14 day) was 2.7 g/dL and the TBIL ([…], time 14 day) was 0.044 mg/dL. It also gave a TC ([…], time 14 day) of 77.8 mg/dL, a TG ([…], time 14 day) of 123.8 mg/dL and a TP ([…], time 14 day) of 5.8 g/dL. For the same compound, the gamma-GTP ([…], time 14 day) was 1.4 IU/L, the A/G ([…], time 28 day) was 0.8 and the ALP ([…], time 28 day) was 1381.2 IU/L. It also gave an ALT ([…], time 28 day) of 39.4 IU/L, an AST ([…], time 28 day) of 64 IU/L and a BUN ([…], time 28 day) of 17.4 mg/dL. The CRE ([…], time 28 day) was 0.2 mg/dL, the Ca ([…], time 28 day) was 10.8 mg/dL and the Cl ([…], time 28 day) was 103.6 meq/L. It also gave a DBIL ([…], time 28 day) of 0.014 mg/dL, a GLC ([…], time 28 day) of 187.2 mg/dL and an IP ([…], time 28 day) of 6.6 mg/dL. For the same compound, the K ([…], time 28 day) was 3.6 meq/L, the LDH ([…], time 28 day) was 47.8 IU/L and the Na ([…], time 28 day) was 143 meq/L. It also gave a PL ([…], time 28 day) of 154.2 mg/dL, an RALB ([…], time 28 day) of 2.7 g/dL and a TBIL ([…], time 28 day) of 0.062 mg/dL. For the same compound, the TC ([…], time 28 day) was 78 mg/dL, the TG ([…], time 28 day) was 133.6 mg/dL and the TP ([…], time 28 day) was 6.2 g/dL. For the same compound, the gamma-GTP ([…], time 28 day) was 1 IU/L.
